Assay results taken from publication PMC6522941, “Design, synthesis, and anticancer evaluation of novel quinoline derivatives of ursolic acid with hydrazide, oxadiazole, and thiadiazole moieties as potent MEK inhibitors” (Journal of Enzyme Inhibition and Medicinal Chemistry, 2019).

Test system: HeLa cells
Assay: ROS generation assay (DCFH-DA)
Type: cell-based, human
Details: 0.2 μM, 48 h
Description: ROS generation assay was performed by using the reactive oxygen species assay kit (Beyotime Biotech., Nantong, China). Intracellular ROS generation was tested through dichlorodihydro fluorescein diacetate (DCFH-DA) assay. DCFH-DA is taken up by HeLa cells, and then activated by esterase-mediated cleavage of acetate to form DCFH, which is trapped in the cells. DCFH is converted to fluorescein DCF in the presence of ROS. HeLa cells were seeded in six-well plates and incubated with different concentrations of compound 4d for 48 h. After removing the compound solution, cells were treated with 10 μM of DCFH-DA at 37 °C for 20 min. Subsequently, the cells were washed with PBS for three times and then exposed to light. Immediately after light exposure, the fluorescence intensity of dichlorofluorescein (DCF) was measured with excitation at 488 nm and emission at 525 nm by a flow cytometry (Becton-Dickinson FACSCalibur, Totowa, NJ, USA).
ROS has been reported to be involved in early stages of apoptosis in many cellular systems. […] HeLa cells were exposed to compound 4d at 0 ∼ 0.2 μM concentrations for 48 h and the intracellular fluorescence intensity was quantitatively analysed by flow cytometry. […]

CC(=O)NNC(=O)C12CCC(C)C(C)C1C1=CCC3C4(C)Cc5cc6cc(Cl)ccc6nc5C(C)(C)C4CCC3(C)C1(C)CC2 (centres unmarked) [Compound 4d, N-[5′-chloro-ursa-12-en-(2,3)-quinoline-28-oyl]-acetohydrazide]
increase of mean fluorescence intensity compared to the control group: 84%
% relative ROS raised cells (control 13.18): 49.66%
